Data: PubChem BioAssay (NCI)
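Growth conditions: 96-well plates. Treatment: test compound, 48 hours, 5 concentrations. Analysis: linear interpolation between bracketing concentrations; unreached endpoints set to highest concentration. At the TGI there is no net growth.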

What was measured:
Experiment in all cases: growth of human tumour cells (NCI), 48 h
786-0 renal = tested on: 786-0 renal
A498 renal = tested on: A498 renal
A549 NSCLC = tested on: A549 NSCLC
ACHN renal = tested on: ACHN renal
CAKI-1 renal = tested on: CAKI-1 renal
CCRF-CEM leukemia = tested on: CCRF-CEM leukemia
COLO 205 colon = tested on: COLO 205 colon
DLD-1 colon = tested on: DLD-1 colon
DMS 114 small cell lung = tested on: DMS 114 small cell lung
EKVX NSCLC = tested on: EKVX NSCLC
HCC-2998 colon = tested on: HCC-2998 colon
HCT-116 colon = tested on: HCT-116 colon
HCT-15 colon = tested on: HCT-15 colon
HL-60(TB) leukemia = tested on: HL-60(TB) leukemia
HOP-18 NSCLC = tested on: HOP-18 NSCLC
HOP-62 NSCLC = tested on: HOP-62 NSCLC
HOP-92 NSCLC = tested on: HOP-92 NSCLC
HT29 colon = tested on: HT29 colon
IGROV1 ovarian = tested on: IGROV1 ovarian
K-562 leukemia = tested on: K-562 leukemia
LOX IMVI melanoma = tested on: LOX IMVI melanoma
LXFL 529 NSCLC = tested on: LXFL 529 NSCLC
M14 melanoma = tested on: M14 melanoma
M19-MEL melanoma = tested on: M19-MEL melanoma
MALME-3M melanoma = tested on: MALME-3M melanoma
NCI-H226 lung = tested on: NCI-H226 lung
NCI-H23 lung = tested on: NCI-H23 lung
NCI-H460 lung = tested on: NCI-H460 lung
NCI-H522 lung = tested on: NCI-H522 lung
OVCAR-4 ovarian = tested on: OVCAR-4 ovarian
OVCAR-8 ovarian = tested on: OVCAR-8 ovarian
RPMI-8226 leukemia = tested on: RPMI-8226 leukemia
RXF 393 renal = tested on: RXF 393 renal
SF-268 CNS = tested on: SF-268 CNS
SF-295 CNS = tested on: SF-295 CNS
SF-539 CNS = tested on: SF-539 CNS
SK-MEL-28 melanoma = tested on: SK-MEL-28 melanoma
SK-MEL-5 melanoma = tested on: SK-MEL-5 melanoma
SK-OV-3 ovarian = tested on: SK-OV-3 ovarian
SN12C renal = tested on: SN12C renal
SNB-75 CNS = tested on: SNB-75 CNS
SNB-78 CNS = tested on: SNB-78 CNS
SR leukemia = tested on: SR leukemia
SW-620 colon = tested on: SW-620 colon
TK-10 renal = tested on: TK-10 renal
U251 CNS = tested on: U251 CNS
UACC-257 melanoma = tested on: UACC-257 melanoma
UACC-62 melanoma = tested on: UACC-62 melanoma
UO-31 renal = tested on: UO-31 renal
XF 498 CNS = tested on: XF 498 CNS
DMS 273 small cell lung = tested on: DMS 273 small cell lung
KM12 colon = tested on: KM12 colon
KM20L2 colon = tested on: KM20L2 colon
MOLT-4 leukemia = tested on: MOLT-4 leukemia
OVCAR-3 ovarian = tested on: OVCAR-3 ovarian
OVCAR-5 ovarian = tested on: OVCAR-5 ovarian
RXF-631 renal = tested on: RXF-631 renal
SK-MEL-2 melanoma = tested on: SK-MEL-2 melanoma
SNB-19 CNS = tested on: SNB-19 CNS

Measured: TGI

CCOC(=O)C(/C(=N\NC(=O)OC)C(=O)Nc1cc(OC)ccc1OC)c1cnc2ccccc2n1 (stereo not given)
not listed: DMS 273 small cell lung | KM12 colon | KM20L2 colon | MOLT-4 leukemia | OVCAR-3 ovarian | OVCAR-5 ovarian | RXF-631 renal | SK-MEL-2 melanoma | SNB-19 CNS
> 100 µM: all other assays above

Cc1cc(=O)n(-c2c(C)cccc2Cl)c(/C=C(\O)c2ccncc2)n1
not listed: M19-MEL melanoma | RPMI-8226 leukemia | SR leukemia | XF 498 CNS
> 100 µM: all other assays above
